In test [1] the target is T1, Muscarinic acetylcholine receptor M2 (Homo sapiens, UniProt P08172).
T1 sequence (P08172 whole entry): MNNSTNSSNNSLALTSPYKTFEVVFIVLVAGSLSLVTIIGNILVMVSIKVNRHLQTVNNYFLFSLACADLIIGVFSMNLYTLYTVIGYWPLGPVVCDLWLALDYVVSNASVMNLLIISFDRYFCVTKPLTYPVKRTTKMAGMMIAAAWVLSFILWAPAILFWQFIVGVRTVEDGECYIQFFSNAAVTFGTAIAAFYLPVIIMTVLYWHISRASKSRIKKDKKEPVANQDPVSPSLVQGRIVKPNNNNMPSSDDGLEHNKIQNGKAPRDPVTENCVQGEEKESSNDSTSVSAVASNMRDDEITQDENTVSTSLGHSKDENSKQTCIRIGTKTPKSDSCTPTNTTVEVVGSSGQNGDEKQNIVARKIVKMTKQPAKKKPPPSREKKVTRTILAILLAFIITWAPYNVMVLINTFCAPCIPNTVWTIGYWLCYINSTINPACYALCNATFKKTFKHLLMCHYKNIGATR

The target in test [2] is T2, Alpha-1A adrenergic receptor (Homo sapiens, UniProt P35348).
T2 sequence (P35348 whole entry): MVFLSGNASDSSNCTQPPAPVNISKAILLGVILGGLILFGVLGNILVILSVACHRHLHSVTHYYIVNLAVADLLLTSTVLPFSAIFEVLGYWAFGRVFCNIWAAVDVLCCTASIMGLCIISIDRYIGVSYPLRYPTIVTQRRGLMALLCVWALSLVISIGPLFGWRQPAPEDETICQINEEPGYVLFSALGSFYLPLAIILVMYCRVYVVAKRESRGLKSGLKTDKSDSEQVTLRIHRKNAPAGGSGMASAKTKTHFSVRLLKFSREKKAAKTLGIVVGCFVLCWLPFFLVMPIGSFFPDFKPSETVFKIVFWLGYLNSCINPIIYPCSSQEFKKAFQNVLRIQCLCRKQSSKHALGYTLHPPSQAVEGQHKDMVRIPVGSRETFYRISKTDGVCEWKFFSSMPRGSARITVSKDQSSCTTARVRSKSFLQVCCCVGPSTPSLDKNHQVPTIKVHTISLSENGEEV
Type of test: functional, cell-based.

The target in test [3] is cGMP-inhibited 3',5'-cyclic phosphodiesterase 3A (Homo sapiens, UniProt Q14432). The class given is functional.
The target of test [4] is Sodium-dependent noradrenaline transporter (Homo sapiens, UniProt P23975).
The next test addresses Acetylcholinesterase (Homo sapiens, UniProt P22303). The class given is functional.
The target of a further test is T3, Thromboxane A2 receptor (Homo sapiens, UniProt P21731).
T3 sequence (P21731 whole entry): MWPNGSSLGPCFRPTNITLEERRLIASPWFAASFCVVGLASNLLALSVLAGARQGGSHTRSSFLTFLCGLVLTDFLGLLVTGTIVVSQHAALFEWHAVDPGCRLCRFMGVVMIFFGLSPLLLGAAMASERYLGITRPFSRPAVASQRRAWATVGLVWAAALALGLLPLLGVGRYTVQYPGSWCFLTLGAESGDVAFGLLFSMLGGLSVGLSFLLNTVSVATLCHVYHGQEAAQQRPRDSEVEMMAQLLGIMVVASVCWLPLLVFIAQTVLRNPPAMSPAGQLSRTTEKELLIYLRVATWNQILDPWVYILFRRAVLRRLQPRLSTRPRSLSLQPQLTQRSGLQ
The class given is functional, cell-based.

The target of test [5] is T4, Amine oxidase [flavin-containing] A (Homo sapiens, UniProt P21397).
T4 sequence (P21397 whole entry): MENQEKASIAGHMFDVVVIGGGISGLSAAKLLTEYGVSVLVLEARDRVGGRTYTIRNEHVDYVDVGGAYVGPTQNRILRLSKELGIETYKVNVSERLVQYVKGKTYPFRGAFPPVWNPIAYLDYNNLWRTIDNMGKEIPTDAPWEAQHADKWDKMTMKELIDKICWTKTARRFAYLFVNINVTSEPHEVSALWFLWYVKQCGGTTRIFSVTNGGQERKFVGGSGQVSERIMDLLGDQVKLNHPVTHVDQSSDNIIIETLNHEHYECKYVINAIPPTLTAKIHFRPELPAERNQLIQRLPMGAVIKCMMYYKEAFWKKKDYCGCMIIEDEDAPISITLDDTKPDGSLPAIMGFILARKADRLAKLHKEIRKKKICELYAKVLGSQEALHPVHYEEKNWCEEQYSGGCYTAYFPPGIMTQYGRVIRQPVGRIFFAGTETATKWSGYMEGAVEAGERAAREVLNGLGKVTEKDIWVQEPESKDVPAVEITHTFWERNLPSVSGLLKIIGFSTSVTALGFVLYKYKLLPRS
Type of test: functional.

The next test has as its target T5, Progesterone receptor (Homo sapiens, UniProt P06401).
T5 sequence (P06401 whole entry): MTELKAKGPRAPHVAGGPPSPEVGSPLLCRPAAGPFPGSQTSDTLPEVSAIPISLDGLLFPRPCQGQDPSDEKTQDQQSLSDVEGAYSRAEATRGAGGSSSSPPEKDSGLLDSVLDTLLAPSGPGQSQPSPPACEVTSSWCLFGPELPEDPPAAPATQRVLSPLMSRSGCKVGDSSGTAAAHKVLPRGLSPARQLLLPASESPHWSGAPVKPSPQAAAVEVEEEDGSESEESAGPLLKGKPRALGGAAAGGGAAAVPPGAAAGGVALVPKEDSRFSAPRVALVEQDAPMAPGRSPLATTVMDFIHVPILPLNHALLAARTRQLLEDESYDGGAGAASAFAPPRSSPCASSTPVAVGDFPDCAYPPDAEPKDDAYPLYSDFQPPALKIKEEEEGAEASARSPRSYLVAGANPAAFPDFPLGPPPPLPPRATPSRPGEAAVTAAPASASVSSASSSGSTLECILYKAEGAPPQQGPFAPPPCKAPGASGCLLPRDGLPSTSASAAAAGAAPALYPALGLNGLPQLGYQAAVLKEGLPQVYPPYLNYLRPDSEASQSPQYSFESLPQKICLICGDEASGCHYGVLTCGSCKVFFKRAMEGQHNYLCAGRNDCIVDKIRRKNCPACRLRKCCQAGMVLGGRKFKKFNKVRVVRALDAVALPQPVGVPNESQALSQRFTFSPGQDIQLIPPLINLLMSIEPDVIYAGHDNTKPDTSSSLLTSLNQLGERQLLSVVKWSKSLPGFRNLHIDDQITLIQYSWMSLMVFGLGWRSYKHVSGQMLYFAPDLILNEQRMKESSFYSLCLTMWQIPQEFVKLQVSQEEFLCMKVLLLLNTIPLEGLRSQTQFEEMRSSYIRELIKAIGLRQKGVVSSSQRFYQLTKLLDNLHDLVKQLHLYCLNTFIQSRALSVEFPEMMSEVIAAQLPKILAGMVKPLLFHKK

For test [6], the target named is Prostaglandin G/H synthase 1 (Homo sapiens, UniProt P23219). The class given is functional.

Some results are limits rather than exact numbers.
Also: assay procedure not described here.

Chain of Acetylcholinesterase (P22303 whole entry): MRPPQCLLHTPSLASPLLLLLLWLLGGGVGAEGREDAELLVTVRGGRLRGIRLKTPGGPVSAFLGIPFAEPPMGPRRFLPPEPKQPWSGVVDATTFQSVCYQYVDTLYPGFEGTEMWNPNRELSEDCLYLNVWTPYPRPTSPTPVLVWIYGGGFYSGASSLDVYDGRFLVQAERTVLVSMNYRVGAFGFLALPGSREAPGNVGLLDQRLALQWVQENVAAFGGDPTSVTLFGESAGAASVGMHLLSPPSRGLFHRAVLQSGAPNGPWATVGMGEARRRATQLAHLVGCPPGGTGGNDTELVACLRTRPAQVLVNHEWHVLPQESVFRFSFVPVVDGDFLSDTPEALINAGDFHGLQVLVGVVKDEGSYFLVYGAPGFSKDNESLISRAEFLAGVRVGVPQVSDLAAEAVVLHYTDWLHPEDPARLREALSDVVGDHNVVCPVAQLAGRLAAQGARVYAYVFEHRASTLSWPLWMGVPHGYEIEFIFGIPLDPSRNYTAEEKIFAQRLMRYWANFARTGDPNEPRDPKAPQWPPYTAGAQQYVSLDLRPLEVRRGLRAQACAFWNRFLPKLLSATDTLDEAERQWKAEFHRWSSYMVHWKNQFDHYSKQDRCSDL
Chain of Sodium-dependent noradrenaline transporter (P23975 whole entry): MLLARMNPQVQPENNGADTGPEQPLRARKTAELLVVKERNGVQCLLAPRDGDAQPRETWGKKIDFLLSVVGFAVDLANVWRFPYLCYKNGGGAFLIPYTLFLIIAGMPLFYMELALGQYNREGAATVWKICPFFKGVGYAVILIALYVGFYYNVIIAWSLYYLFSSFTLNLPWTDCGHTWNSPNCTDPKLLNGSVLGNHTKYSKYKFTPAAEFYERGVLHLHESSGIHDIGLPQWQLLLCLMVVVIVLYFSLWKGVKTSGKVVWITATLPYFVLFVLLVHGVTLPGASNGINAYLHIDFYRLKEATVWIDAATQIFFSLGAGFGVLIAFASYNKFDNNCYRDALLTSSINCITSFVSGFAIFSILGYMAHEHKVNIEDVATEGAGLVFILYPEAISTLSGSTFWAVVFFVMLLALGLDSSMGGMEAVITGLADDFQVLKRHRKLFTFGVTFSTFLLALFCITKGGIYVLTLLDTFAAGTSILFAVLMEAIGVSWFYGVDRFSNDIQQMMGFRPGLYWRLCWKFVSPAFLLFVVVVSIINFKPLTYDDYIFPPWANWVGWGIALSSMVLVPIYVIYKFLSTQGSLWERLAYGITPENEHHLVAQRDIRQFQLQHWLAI
Chain of Prostaglandin G/H synthase 1 (P23219 whole entry): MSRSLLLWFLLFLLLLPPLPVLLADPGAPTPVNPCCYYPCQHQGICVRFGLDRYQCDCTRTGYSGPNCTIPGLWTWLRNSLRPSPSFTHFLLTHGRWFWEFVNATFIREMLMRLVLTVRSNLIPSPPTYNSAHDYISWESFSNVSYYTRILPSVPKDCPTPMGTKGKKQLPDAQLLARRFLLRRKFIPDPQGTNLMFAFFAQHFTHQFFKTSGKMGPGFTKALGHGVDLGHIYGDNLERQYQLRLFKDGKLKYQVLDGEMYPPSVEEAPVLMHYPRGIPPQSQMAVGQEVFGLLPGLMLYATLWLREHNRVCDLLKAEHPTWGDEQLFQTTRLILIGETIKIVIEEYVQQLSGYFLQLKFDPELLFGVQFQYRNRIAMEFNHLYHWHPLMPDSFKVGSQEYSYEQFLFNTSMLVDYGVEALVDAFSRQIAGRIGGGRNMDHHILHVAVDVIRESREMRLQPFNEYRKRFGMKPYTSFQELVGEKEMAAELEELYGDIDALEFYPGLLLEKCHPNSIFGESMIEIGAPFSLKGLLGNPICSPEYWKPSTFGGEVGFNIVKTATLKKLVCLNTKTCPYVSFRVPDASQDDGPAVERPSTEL
Chain of cGMP-inhibited 3',5'-cyclic phosphodiesterase 3A (Q14432 whole entry): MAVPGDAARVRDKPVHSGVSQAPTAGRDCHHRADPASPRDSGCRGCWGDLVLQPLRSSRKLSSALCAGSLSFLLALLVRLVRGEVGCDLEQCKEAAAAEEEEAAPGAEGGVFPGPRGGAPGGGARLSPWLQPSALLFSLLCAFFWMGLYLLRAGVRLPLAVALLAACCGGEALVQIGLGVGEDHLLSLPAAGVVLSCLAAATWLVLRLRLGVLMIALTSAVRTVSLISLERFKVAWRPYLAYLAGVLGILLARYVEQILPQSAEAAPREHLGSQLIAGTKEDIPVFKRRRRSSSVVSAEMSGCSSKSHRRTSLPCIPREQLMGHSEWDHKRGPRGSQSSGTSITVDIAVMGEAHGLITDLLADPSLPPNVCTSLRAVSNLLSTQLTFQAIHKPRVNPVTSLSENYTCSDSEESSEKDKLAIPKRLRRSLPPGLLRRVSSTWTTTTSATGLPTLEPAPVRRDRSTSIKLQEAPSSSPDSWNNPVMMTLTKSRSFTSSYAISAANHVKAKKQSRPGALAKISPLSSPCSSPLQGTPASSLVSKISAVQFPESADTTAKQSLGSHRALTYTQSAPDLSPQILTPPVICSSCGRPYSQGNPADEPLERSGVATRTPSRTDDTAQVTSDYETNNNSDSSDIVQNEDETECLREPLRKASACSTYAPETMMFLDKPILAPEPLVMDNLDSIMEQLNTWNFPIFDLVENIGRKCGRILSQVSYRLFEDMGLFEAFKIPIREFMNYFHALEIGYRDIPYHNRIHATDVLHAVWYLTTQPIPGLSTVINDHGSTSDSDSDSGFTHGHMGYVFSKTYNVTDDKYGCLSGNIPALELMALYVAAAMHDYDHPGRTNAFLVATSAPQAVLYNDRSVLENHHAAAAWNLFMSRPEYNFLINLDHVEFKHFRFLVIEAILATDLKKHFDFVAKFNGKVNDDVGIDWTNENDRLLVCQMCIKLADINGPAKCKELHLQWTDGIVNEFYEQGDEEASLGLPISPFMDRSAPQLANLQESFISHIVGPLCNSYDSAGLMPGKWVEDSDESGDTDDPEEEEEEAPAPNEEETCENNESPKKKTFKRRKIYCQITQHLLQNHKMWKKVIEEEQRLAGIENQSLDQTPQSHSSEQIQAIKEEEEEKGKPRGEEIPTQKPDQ

For `O=C1CCC(N2C(=O)c3ccccc3C2=O)C(=O)N1` (stereo not drawn) [THALIDOMIDE], the AC50 (commonly the concentration at which the activity in the assay is half-maximal) in [1] is 14.8 µM; in test [2], greater than 30 µM; in test [3], greater than 30 µM; in test [4], greater than 30 µM; at Acetylcholinesterase, greater than 30 µM; at Thromboxane A2 receptor, greater than 30 µM. In addition, the AC50 (in [5]; on Progesterone receptor; in [6]) was greater than 30 µM in each case.

For the compound `CC(C(=O)O)c1ccc2c(c1)Cc1cccnc1O2` (stereo not drawn) [PRANOPROFEN], the AC50 (in test [1]; in test [2]; in test [3]; in test [4]; on Acetylcholinesterase; at Thromboxane A2 receptor) was greater than 30 µM throughout. Besides, the AC50 in [5] is greater than 30 µM; on Progesterone receptor it was greater than 30 µM; in test [6] it was 0.478 µM.

Take `O=[N+]([O-])c1cncn1CCN1CCOCC1` [NIMORAZOLE]: the AC50 (in test [1]; in [2]; in test [3]; in test [4]; on Acetylcholinesterase; on Thromboxane A2 receptor) was greater than 30 µM throughout. Besides, the AC50 (in [5]; on Progesterone receptor; in test [6]) was greater than 30 µM each time.

As to `CN1CCC2=C(C1)c1ccccc1Cc1ccccc12` [SETIPTILINE], the AC50 in test [1] was 0.855 µM; in test [2], 0.231 µM; in test [3], greater than 30 µM; in test [4] it was 3.52 µM; at Acetylcholinesterase, greater than 30 µM; on Thromboxane A2 receptor it was greater than 30 µM. The AC50 (in [5]; at Progesterone receptor; in test [6]) was greater than 30 µM each time.

In the case of `Nc1nc(-n2cc(C(=O)O)c(=O)c3cc(F)c(N4CC(O)C4)c(Cl)c32)c(F)cc1F` [DELAFLOXACIN], the AC50 (in [1]; in test [2]; in test [3]; in test [4]; at Acetylcholinesterase; on Thromboxane A2 receptor) was greater than 30 µM each time. Besides, the AC50 (in test [5]; at Progesterone receptor; in test [6]) was greater than 30 µM each time.

With `Cc1c(O)cccc1C(=O)N[C@@H](CSc1ccccc1)[C@H](O)CN1C[C@H]2CCCC[C@H]2C[C@H]1C(=O)NC(C)(C)C`, the AC50 in test [1] was greater than 30 µM; in [2], greater than 30 µM; in [3] it was greater than 30 µM; in [4], 18.2 µM; at Acetylcholinesterase, greater than 30 µM; on Thromboxane A2 receptor, greater than 30 µM. In addition, the AC50 (in test [5]; on Progesterone receptor; in test [6]) was greater than 30 µM throughout.

For the compound `CCC1C(C)=NN=C(c2ccc(OC)c(OC)c2)c2cc(OC)c(OC)cc21` (stereo not drawn) [TOFISOPAM], the AC50 is greater than 30 µM in test [1]; greater than 30 µM in test [2]; 6.62 µM in [3]; greater than 30 µM in test [4]; greater than 30 µM on Acetylcholinesterase; greater than 30 µM at Thromboxane A2 receptor. In addition, the AC50 (in test [5]; at Progesterone receptor; in [6]) was greater than 30 µM each time.

As for `O=C(O)CCn1c2c(c3ccccc31)C[C@H](NS(=O)(=O)c1ccc(F)cc1)CC2` [RAMATROBAN], the AC50 (in [1]; in test [2]; in test [3]; in test [4]; on Acetylcholinesterase; at Thromboxane A2 receptor) was greater than 30 µM in each case. For the same compound, the AC50 (in test [5]; at Progesterone receptor; in test [6]) was greater than 30 µM in each case.

With `C[C@@H]1C[C@H]2[C@@H]3CCC4=CC(=O)C=C[C@]4(C)[C@@]3(F)[C@@H](O)C[C@]2(C)[C@H]1C(=O)CO` [DESOXIMETASONE], the AC50 (in [1]; in test [2]; in test [3]; in test [4]; on Acetylcholinesterase; on Thromboxane A2 receptor) was greater than 30 µM each time. The results for the concentration at half-maximal activity (AC50) (in test [5]; at Progesterone receptor; in test [6]) were greater than 30 µM, 0.0331 µM and greater than 30 µM, respectively.

Consider `COc1cc2c(cc1OC)[C@H]1C[C@@H](OC(=O)[C@@H](N)C(C)C)[C@H](CC(C)C)CN1CC2` [VALBENAZINE], for which the AC50 (in [1]; in test [2]; in test [3]; in test [4]; on Acetylcholinesterase; at Thromboxane A2 receptor) was greater than 30 µM in each case. In addition, the AC50 in test [5] was greater than 30 µM; at Progesterone receptor, greater than 30 µM; in test [6], 5.44 µM.

As for `C[C@@H]1C[C@H]2[C@@H]3C[C@H](F)C4=CC(=O)C=C[C@]4(C)[C@@]3(F)[C@@H](O)C[C@]2(C)[C@@]1(O)C(=O)COC(=O)C(C)(C)C` [FLUMETHASONE PIVALATE], the AC50 (in [1]; in test [2]; in test [3]; in test [4]; on Acetylcholinesterase; on Thromboxane A2 receptor) was greater than 30 µM throughout. The AC50 is greater than 30 µM in [5], 5.85 µM at Progesterone receptor and greater than 30 µM in test [6].

Take `CS(=O)(=O)Nc1cc2occ(NC=O)c(=O)c2cc1Oc1ccccc1` [IGURATIMOD]: the AC50 (in test [1]; in test [2]; in test [3]; in test [4]; on Acetylcholinesterase; at Thromboxane A2 receptor) was greater than 30 µM in each case. Also, the AC50 was greater than 30 µM in test [5], greater than 30 µM on Progesterone receptor and 4.51 µM in test [6].

Source of the values: ChEMBL document CHEMBL5291721, “A preclinical secondary pharmacology resource illuminates target-adverse drug reaction associations of marketed drugs” (Nat Commun, 2023).
